{"source": "ChEMBL document CHEMBL1201862", "about": "“PubChem BioAssay data set” (2004)", "key": {"[1]": {"test": "viability loss in A549 lung cancer cells – cell-based, cherry-picks, […], cytotoxicity control, dose response (AID 1053119)", "assay_type": "functional"}, "[2]": {"test": "viability loss in HepG2 hepatoma cells – cell-based, cherry-picks, set 5, cytotoxicity control, dose response (AID 1053118)", "assay_type": "functional"}, "[3]": {"test": "inhibition of fibronectin matrix deposition – AH1F cells, Alexa488-fibronectin fluorescence, cherry-pick, set 2, dose response (AID 1117283)", "assay_type": "functional, cell-based"}, "[4]": {"biological_target": "Glutathione-S-transferase (Schistosoma japonicum, UniProt Q26513)", "sequence (Q26513 whole entry)": "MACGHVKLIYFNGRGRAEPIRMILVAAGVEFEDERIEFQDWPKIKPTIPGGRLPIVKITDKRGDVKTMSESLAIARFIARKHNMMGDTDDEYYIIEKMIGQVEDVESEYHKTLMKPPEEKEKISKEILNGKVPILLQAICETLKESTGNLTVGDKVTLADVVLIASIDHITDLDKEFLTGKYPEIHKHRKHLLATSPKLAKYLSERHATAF", "test": "GST-antibody interaction or FRET quenching – biochemical, TR-FRET, artefact control for Vif-APOBEC3G degradation inhibitor project, dose response (AID 1117362)", "assay_type": "functional"}, "[5]": {"biological_target": "T1, Rac GTPase-activating protein 1 (Homo sapiens, UniProt Q9H0H5)", "T1 sequence (Q9H0H5 whole entry)": "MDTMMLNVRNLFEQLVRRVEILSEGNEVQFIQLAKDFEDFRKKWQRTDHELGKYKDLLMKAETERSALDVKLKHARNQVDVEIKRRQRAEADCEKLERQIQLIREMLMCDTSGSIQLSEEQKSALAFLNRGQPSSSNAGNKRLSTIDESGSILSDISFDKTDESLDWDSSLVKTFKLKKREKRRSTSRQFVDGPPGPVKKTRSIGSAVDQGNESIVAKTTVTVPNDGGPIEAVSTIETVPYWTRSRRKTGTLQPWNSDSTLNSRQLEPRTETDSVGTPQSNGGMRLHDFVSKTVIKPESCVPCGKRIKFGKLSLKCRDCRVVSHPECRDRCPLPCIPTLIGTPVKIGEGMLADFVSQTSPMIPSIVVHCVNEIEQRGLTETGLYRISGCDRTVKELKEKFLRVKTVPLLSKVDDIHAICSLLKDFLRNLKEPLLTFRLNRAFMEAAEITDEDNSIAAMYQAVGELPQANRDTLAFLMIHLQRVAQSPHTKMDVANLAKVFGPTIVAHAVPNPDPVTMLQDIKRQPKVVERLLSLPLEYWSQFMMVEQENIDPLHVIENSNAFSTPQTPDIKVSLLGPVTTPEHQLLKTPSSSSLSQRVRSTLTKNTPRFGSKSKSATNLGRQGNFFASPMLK", "test": "blockers of MgcRacGAP-driven Rac1 GTP hydrolysis – biochemical, ADP Hunter fluorescence, primary and confirmatory, confirmation (AID 624330)", "assay_type": "functional"}, "[6]": {"biological_target": "1-phosphatidylinositol 4,5-bisphosphate phosphodiesterase beta-3 (Homo sapiens, UniProt Q01970)", "sequence (Q01970 whole entry)": "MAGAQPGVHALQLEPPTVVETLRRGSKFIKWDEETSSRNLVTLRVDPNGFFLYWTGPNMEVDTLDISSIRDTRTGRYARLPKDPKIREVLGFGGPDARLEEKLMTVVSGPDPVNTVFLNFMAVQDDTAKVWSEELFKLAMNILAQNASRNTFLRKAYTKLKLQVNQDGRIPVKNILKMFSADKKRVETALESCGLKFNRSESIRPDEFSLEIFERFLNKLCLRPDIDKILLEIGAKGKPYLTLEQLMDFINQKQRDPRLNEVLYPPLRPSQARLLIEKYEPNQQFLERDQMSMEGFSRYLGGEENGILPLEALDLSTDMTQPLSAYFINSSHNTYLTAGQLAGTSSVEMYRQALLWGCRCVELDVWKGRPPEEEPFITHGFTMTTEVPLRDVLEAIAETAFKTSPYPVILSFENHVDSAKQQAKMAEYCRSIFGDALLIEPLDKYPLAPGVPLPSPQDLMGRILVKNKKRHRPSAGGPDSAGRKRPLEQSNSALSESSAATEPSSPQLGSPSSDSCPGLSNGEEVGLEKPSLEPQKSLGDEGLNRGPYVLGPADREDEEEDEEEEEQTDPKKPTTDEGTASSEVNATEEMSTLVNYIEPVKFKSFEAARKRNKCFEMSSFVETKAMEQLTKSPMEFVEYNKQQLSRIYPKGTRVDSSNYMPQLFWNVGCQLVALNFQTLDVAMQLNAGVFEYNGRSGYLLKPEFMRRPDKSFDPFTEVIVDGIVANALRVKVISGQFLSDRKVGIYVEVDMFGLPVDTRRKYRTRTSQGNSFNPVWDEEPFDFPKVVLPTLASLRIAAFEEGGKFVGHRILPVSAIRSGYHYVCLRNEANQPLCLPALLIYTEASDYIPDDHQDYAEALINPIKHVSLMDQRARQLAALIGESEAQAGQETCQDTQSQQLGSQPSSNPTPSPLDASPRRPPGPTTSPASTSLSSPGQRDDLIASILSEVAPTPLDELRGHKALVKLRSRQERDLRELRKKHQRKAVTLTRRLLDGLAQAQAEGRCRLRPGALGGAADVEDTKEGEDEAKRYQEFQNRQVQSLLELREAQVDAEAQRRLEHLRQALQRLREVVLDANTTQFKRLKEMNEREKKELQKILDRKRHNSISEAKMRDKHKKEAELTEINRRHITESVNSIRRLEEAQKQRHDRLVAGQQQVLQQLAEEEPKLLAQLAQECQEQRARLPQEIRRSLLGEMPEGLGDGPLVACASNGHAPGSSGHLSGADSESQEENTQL", "test": "Fluorescence-based biochemical high throughput dose response assay to identify inhibitors of phospholipase C isozymes (PLC-B3)."}, "Genome polyprotein": {"biological_target": "Genome polyprotein (dengue virus type 2, UniProt P29990)", "sequence (P29990 2492-3391 limits assumed)": "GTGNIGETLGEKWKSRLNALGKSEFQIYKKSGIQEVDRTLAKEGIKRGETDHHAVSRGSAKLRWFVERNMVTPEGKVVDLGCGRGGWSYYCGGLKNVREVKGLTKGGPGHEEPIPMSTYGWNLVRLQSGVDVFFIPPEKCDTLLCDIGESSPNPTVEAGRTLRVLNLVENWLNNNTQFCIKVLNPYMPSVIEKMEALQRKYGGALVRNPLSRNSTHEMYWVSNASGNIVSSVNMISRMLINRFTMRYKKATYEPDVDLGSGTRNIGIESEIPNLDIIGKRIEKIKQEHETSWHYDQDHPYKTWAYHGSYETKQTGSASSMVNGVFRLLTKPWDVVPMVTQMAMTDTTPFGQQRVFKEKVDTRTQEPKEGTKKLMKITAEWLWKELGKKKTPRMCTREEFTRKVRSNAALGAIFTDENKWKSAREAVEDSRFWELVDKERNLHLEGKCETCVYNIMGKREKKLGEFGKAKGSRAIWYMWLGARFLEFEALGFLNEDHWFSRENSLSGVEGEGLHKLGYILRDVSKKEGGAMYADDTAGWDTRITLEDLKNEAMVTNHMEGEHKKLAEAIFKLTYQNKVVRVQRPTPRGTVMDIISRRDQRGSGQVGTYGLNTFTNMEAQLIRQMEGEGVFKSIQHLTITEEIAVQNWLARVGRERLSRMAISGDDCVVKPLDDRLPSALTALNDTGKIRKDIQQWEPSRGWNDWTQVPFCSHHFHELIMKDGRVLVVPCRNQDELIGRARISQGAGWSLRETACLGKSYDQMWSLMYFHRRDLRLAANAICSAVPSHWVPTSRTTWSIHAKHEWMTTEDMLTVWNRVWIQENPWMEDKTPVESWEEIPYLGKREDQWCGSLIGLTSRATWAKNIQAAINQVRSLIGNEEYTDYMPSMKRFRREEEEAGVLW", "test": "flavivirus cap methylation enzyme inhibition – biochemical, confirmation dose response, primary screen (AID 588689)", "assay_type": "functional"}, "[7]": {"biological_target": "1-phosphatidylinositol 4,5-bisphosphate phosphodiesterase gamma-1 (Homo sapiens, UniProt P19174)", "sequence (P19174 whole entry)": "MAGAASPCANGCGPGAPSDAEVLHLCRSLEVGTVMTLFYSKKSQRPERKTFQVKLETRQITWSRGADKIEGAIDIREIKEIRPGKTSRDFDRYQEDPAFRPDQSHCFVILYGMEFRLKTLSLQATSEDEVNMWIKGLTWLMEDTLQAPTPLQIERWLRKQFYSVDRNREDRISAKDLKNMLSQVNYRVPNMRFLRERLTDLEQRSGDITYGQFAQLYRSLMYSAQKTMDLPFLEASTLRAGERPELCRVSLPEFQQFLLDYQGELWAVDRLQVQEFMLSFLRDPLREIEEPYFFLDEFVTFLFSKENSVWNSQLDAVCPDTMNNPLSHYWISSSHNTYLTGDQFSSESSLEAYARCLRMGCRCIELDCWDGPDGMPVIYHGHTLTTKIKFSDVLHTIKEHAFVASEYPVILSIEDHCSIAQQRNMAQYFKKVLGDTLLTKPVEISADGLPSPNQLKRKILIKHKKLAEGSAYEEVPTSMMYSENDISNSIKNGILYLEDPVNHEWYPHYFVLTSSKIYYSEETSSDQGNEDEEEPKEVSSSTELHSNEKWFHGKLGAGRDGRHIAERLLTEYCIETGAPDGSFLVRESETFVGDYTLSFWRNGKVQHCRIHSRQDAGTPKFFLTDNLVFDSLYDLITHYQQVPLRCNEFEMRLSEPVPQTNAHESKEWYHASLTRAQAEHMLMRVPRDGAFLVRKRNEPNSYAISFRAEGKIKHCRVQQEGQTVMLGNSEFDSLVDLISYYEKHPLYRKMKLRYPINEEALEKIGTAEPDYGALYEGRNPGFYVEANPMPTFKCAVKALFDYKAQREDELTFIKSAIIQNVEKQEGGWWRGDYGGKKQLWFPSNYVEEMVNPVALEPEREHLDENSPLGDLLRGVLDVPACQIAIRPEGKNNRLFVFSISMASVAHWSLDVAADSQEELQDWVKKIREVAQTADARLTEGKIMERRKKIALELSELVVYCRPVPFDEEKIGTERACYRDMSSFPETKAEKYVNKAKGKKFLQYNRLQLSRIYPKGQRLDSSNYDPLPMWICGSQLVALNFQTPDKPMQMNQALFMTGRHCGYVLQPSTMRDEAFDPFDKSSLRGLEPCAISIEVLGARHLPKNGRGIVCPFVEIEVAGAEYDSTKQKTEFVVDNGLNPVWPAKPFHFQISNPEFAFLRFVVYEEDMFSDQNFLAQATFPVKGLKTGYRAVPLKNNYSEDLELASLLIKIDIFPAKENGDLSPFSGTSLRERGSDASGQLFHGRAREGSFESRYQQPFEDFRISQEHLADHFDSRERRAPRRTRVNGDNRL", "test": "Counterscreen for inhibitors of phospholipase C isozymes (PLC-B3): Fluorescence-based biochemical high throughput dose response assay to identify inhibitors of phospholipase C isozymes (PLC-gamma1)."}, "[8]": {"test": "rise of 4N DNA cells, HeLa – IC50, dose response (AID 1117351)", "assay_type": "functional, cell-based"}, "[9]": {"test": "rise of 2N DNA cells, HeLa – IC50, dose response (AID 1117349)", "assay_type": "functional, cell-based"}, "[10]": {"test": "SNU-C1 cell viability reduction, dose response, CellTiter-Glo luminescence (AID 1117323)", "assay_type": "functional, cell-based"}, "[11]": {"test": "RKO cell viability reduction, dose response, CellTiter-Glo luminescence (AID 1117322)", "assay_type": "functional"}, "[12]": {"test": "CellTiter-Glo luminescence survival assay, SW480 colon tumor line, concentration-response curve, half-maximal inhibitory concentration (AID 1117338)", "assay_type": "functional"}, "[13]": {"test": "cytotoxicity toward HT-29 cells – cell-based, CellTiter-Glo luminescence, IC50, dose response (AID 1117330)", "assay_type": "functional"}, "[14]": {"test": "cytotoxicity toward HCT116 cells – cell-based, CellTiter-Glo luminescence, IC50, dose response (AID 1117332)", "assay_type": "functional", "details": "HCT-116"}, "[15]": {"test": "HCT116 cell viability decrease, GSK3B pretreatment – CellTiter-Glo, IC50, dose response (AID 1117339)", "assay_type": "functional", "details": "HCT-116"}, "[16]": {"test": "Reduced DLD-1 viability, concentration-response, CellTiter-Glo luminescence (AID 1117352)", "assay_type": "functional"}}, "note": "Calls of active or inactive are those of the source.", "data": [{"smiles": "O=C(c1cccnc1)N1C[C@@H]2[C@H](c3ccccc31)[C@H](CO)N2CC1CCCC1", "values": [{"measurement": "AC50", "setting": "[1]", "result": "> 47 µM (inactive)"}, {"measurement": "AC50", "setting": "[2]", "result": "> 47 µM (inactive)"}, {"measurement": "AC50", "setting": "[3]", "result": "> 60 µM (inactive)"}]}, {"smiles": "O=C(O)c1cccc2cccc(-c3c4ccc(=O)c(O)c-4oc4c(O)c(O)ccc34)c12", "values": [{"measurement": "IC50", "setting": "[4]", "result": "> 100 µM (active)"}, {"measurement": "IC50", "setting": "[5]", "result": "13.3 µM (active)"}, {"measurement": "IC50", "setting": "[6]", "result": "> 122 µM (inactive)"}, {"measurement": "IC50", "setting": "Genome polyprotein", "result": "14.6 µM (active)"}, {"measurement": "IC50", "setting": "[7]", "result": "> 122 µM (inactive)"}]}, {"smiles": "CC(C)c1c(C(=O)Nc2ccccc2)c(-c2ccccc2)c(-c2ccc(F)cc2)n1CC[C@@H](O)C[C@@H](O)CC(=O)O", "note": "[ATORVASTATIN CALCIUM]", "values": [{"measurement": "IC50", "setting": "[8]", "result": "> 10 µM (inactive)"}, {"measurement": "IC50", "setting": "[9]", "result": "> 10 µM (inactive)"}, {"measurement": "IC50", "setting": "[10]", "result": "> 20 µM (inactive)"}, {"measurement": "IC50", "setting": "[11]", "result": "> 20 µM (inactive)"}, {"measurement": "IC50", "setting": "[12]", "result": "> 20 µM (inactive)"}, {"measurement": "IC50", "setting": "[13]", "result": "> 20 µM (inactive)"}, {"measurement": "IC50", "setting": "[14]", "result": "> 20 µM (inactive)"}, {"measurement": "IC50", "setting": "[15]", "result": "4.79 µM (active)"}, {"measurement": "IC50", "setting": "[16]", "result": "> 20 µM (inactive)"}]}]}
